Results as given in paper PMC11249646, “Small-Molecule Disruptors of the Interaction between Calcium- and Integrin-Binding Protein 1 and Integrin αIIbβ3 as Novel Antiplatelet Agents” (ACS Pharmacology & Translational Science, 2024).

Molecular target: T1, CIB1 and αIIb interaction (CIB1-GST : F-αIIb peptide) (Homo sapiens, UniProt Q99828)
T1 construct: made in house; host or cells: BL-21 plus RIL cells (E. coli)
T1 sequence (Q99828 1-191): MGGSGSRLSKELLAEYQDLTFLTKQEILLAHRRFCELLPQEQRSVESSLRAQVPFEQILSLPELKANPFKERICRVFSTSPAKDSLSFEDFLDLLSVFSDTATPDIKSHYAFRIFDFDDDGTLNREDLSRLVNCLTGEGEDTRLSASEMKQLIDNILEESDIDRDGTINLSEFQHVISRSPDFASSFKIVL
Test: FP assay, 1536-well qHTS format (primary and confirmatory screen)
Format: binding
Conditions: confirmatory screen

CONFIRMATORY SCREEN Efficacy (%) | Efficacy (%) (confirmatory screen) | Structure (SMILES)
-19 |  | NC(=O)c1ccc(O)c2ncccc12 [NCGC00184888-01]
 | -38 | CCN1CCN(c2cccc(Nc3nn4c(=O)c5ccccc5nc4s3)c2)CC1.Cl [NCGC00187806-01]
-43 |  | COc1ccc2c(=O)n3nc(Nc4cccc(N5CCN(C)CC5)c4)sc3nc2c1.Cl [NCGC00187813-01]
 | -63 | CN1CCN(c2cccc(Nc3nn4c(=O)c5ccc(Br)cc5nc4s3)c2)CC1.Cl [NCGC00187814-01]

Structure (SMILES) | CONFIRMATORY SCREEN Efficacy (%) | Efficacy (%) (confirmatory screen)
CN1CCN(c2ccc(Nc3nn4c(=O)c5ccccc5nc4s3)cc2)CC1.O=C(O)C(F)(F)F [NCGC00186454-01] |  | -50
CC1(C)N=C(Nc2nc3ccccc3o2)NC2=C1C(=O)CCC2.O=C(O)C(F)(F)F [NCGC00187643-01] | -26 | 

Same assay, conditions: confirmatory screen, YES/NO

Confirm? (confirmatory screen) | Structure (SMILES)
YES | CCN1CCN(c2cccc(Nc3nn4c(=O)c5ccccc5nc4s3)c2)CC1.Cl [NCGC00187806-01]
YES | CN1CCN(c2cccc(Nc3nn4c(=O)c5ccc(Br)cc5nc4s3)c2)CC1.Cl [NCGC00187814-01]

Structure (SMILES) | Confirm? (confirmatory screen)
CN1CCN(c2ccc(Nc3nn4c(=O)c5ccccc5nc4s3)cc2)CC1.O=C(O)C(F)(F)F [NCGC00186454-01] | YES

Same assay, conditions: confirmatory screen, qHTS curve class

CONFIRMATORY SCREEN Curve Class | Structure (SMILES)
4 | NC(=O)c1ccc(O)c2ncccc12 [NCGC00184888-01]
4 | COc1ccc2c(=O)n3nc(Nc4cccc(N5CCN(C)CC5)c4)sc3nc2c1.Cl [NCGC00187813-01]

Structure (SMILES) | CONFIRMATORY SCREEN Curve Class
CC1(C)N=C(Nc2nc3ccccc3o2)NC2=C1C(=O)CCC2.O=C(O)C(F)(F)F [NCGC00187643-01] | 4

Same assay, conditions: confirmatory screen, qHTS curve class; negative sign = inhibitory curve

Curve Class (confirmatory screen) | Structure (SMILES)
-2.4 | CCN1CCN(c2cccc(Nc3nn4c(=O)c5ccccc5nc4s3)c2)CC1.Cl [NCGC00187806-01]
-2.4 | CN1CCN(c2cccc(Nc3nn4c(=O)c5ccc(Br)cc5nc4s3)c2)CC1.Cl [NCGC00187814-01]

Structure (SMILES) | Curve Class (confirmatory screen)
CN1CCN(c2ccc(Nc3nn4c(=O)c5ccccc5nc4s3)cc2)CC1.O=C(O)C(F)(F)F [NCGC00186454-01] | -2.2

Same assay, conditions: confirmatory screen; read-out: IC50 [μM] (confirmatory screen)

IC50 [µM] | Structure (SMILES)
44.7 | CCN1CCN(c2cccc(Nc3nn4c(=O)c5ccccc5nc4s3)c2)CC1.Cl [NCGC00187806-01]
50.1 | CN1CCN(c2cccc(Nc3nn4c(=O)c5ccc(Br)cc5nc4s3)c2)CC1.Cl [NCGC00187814-01]

Structure (SMILES) | IC50 [µM]
CN1CCN(c2ccc(Nc3nn4c(=O)c5ccccc5nc4s3)cc2)CC1.O=C(O)C(F)(F)F [NCGC00186454-01] | 50.1

Same assay, conditions: qHTS FP screen hits, Table S2; negative = inhibition

Efficacy (%) | Structure (SMILES)
-28 | CN1CCN(c2cccc(Nc3nn4c(=O)c5ccc(Br)cc5nc4s3)c2)CC1.Cl [NCGC00187814-01]

Same assay, conditions: qHTS FP screen hits, Table S2; read-out: IC50

IC50 [µM] | Structure (SMILES)
39.8 | CN1CCN(c2cccc(Nc3nn4c(=O)c5ccc(Br)cc5nc4s3)c2)CC1.Cl [NCGC00187814-01]

Same assay, conditions: qHTS primary screen hits, Table S2; negative = inhibition

Efficacy (%) | Structure (SMILES)
-24 | NC(=O)c1ccc(O)c2ncccc12 [NCGC00184888-01]
-24 | CCN1CCN(c2cccc(Nc3nn4c(=O)c5ccccc5nc4s3)c2)CC1.Cl [NCGC00187806-01]
-22 | COc1ccc2c(=O)n3nc(Nc4cccc(N5CCN(C)CC5)c4)sc3nc2c1.Cl [NCGC00187813-01]

Structure (SMILES) | Efficacy (%)
CN1CCN(c2ccc(Nc3nn4c(=O)c5ccccc5nc4s3)cc2)CC1.O=C(O)C(F)(F)F [NCGC00186454-01] | -32
CC1(C)N=C(Nc2nc3ccccc3o2)NC2=C1C(=O)CCC2.O=C(O)C(F)(F)F [NCGC00187643-01] | -35

Same assay, conditions: qHTS primary screen hits, Table S2; negative sign = inhibitory curve

Structure (SMILES) | Curve Class
CN1CCN(c2ccc(Nc3nn4c(=O)c5ccccc5nc4s3)cc2)CC1.O=C(O)C(F)(F)F [NCGC00186454-01] | -1.4

Same assay, conditions: qHTS primary screen hits, Table S2; negative sign = inhibitory curve; several classes where COUNT > 1

Curve Class | Structure (SMILES)
-1.4 | NC(=O)c1ccc(O)c2ncccc12 [NCGC00184888-01]
-2.4 | CCN1CCN(c2cccc(Nc3nn4c(=O)c5ccccc5nc4s3)c2)CC1.Cl [NCGC00187806-01]
-1.4 | COc1ccc2c(=O)n3nc(Nc4cccc(N5CCN(C)CC5)c4)sc3nc2c1.Cl [NCGC00187813-01]

Structure (SMILES) | Curve Class
CC1(C)N=C(Nc2nc3ccccc3o2)NC2=C1C(=O)CCC2.O=C(O)C(F)(F)F [NCGC00187643-01] | -2.2

Same assay, conditions: qHTS primary screen hits, Table S2; read-out: IC50

IC50 [µM] | Structure (SMILES)
14.1 | NC(=O)c1ccc(O)c2ncccc12 [NCGC00184888-01]
35.5 | CCN1CCN(c2cccc(Nc3nn4c(=O)c5ccccc5nc4s3)c2)CC1.Cl [NCGC00187806-01]
17.8 | COc1ccc2c(=O)n3nc(Nc4cccc(N5CCN(C)CC5)c4)sc3nc2c1.Cl [NCGC00187813-01]

Structure (SMILES) | IC50 [µM]
CN1CCN(c2ccc(Nc3nn4c(=O)c5ccccc5nc4s3)cc2)CC1.O=C(O)C(F)(F)F [NCGC00186454-01] | 12.6
CC1(C)N=C(Nc2nc3ccccc3o2)NC2=C1C(=O)CCC2.O=C(O)C(F)(F)F [NCGC00187643-01] | 20

Molecular target: T2, GST-CIB1 : F-scrambled peptide (Homo sapiens, UniProt Q99828)
T2 construct: made in house; host or cells: BL-21 plus RIL cells (E. coli)
T2 sequence (Q99828 1-191): T1 sequence (Q99828 1-191)
Test: FP scrambled-peptide counter screen, 1536-well format
Format: binding
Conditions: counterscreen

COUNTERSCREEN Efficacy (%) | Efficacy (%) (counterscreen) | Structure (SMILES)
-10 |  | NC(=O)c1ccc(O)c2ncccc12 [NCGC00184888-01]
 | -58 | CCN1CCN(c2cccc(Nc3nn4c(=O)c5ccccc5nc4s3)c2)CC1.Cl [NCGC00187806-01]
-16 |  | COc1ccc2c(=O)n3nc(Nc4cccc(N5CCN(C)CC5)c4)sc3nc2c1.Cl [NCGC00187813-01]
 | -54 | CN1CCN(c2cccc(Nc3nn4c(=O)c5ccc(Br)cc5nc4s3)c2)CC1.Cl [NCGC00187814-01]

Structure (SMILES) | COUNTERSCREEN Efficacy (%) | Efficacy (%) (counterscreen)
CN1CCN(c2ccc(Nc3nn4c(=O)c5ccccc5nc4s3)cc2)CC1.O=C(O)C(F)(F)F [NCGC00186454-01] |  | -37
CC1(C)N=C(Nc2nc3ccccc3o2)NC2=C1C(=O)CCC2.O=C(O)C(F)(F)F [NCGC00187643-01] | -12 | 

Same assay, conditions: counterscreen, qHTS curve class

COUNTERSCREEN Curve Class | Structure (SMILES)
4 | NC(=O)c1ccc(O)c2ncccc12 [NCGC00184888-01]
4 | COc1ccc2c(=O)n3nc(Nc4cccc(N5CCN(C)CC5)c4)sc3nc2c1.Cl [NCGC00187813-01]

Structure (SMILES) | COUNTERSCREEN Curve Class
CC1(C)N=C(Nc2nc3ccccc3o2)NC2=C1C(=O)CCC2.O=C(O)C(F)(F)F [NCGC00187643-01] | 4

Same assay, conditions: counterscreen, qHTS curve class; negative sign = inhibitory curve

Curve Class (counterscreen) | Structure (SMILES)
-3 | CCN1CCN(c2cccc(Nc3nn4c(=O)c5ccccc5nc4s3)c2)CC1.Cl [NCGC00187806-01]
-2.2 | CN1CCN(c2cccc(Nc3nn4c(=O)c5ccc(Br)cc5nc4s3)c2)CC1.Cl [NCGC00187814-01]

Structure (SMILES) | Curve Class (counterscreen)
CN1CCN(c2ccc(Nc3nn4c(=O)c5ccccc5nc4s3)cc2)CC1.O=C(O)C(F)(F)F [NCGC00186454-01] | -2.4

Same assay, conditions: counterscreen; read-out: IC50 [μM] (counterscreen)

IC50 [µM] | Structure (SMILES)
89.1 | CCN1CCN(c2cccc(Nc3nn4c(=O)c5ccccc5nc4s3)c2)CC1.Cl [NCGC00187806-01]
50.1 | CN1CCN(c2cccc(Nc3nn4c(=O)c5ccc(Br)cc5nc4s3)c2)CC1.Cl [NCGC00187814-01]

Structure (SMILES) | IC50 [µM]
CN1CCN(c2ccc(Nc3nn4c(=O)c5ccccc5nc4s3)cc2)CC1.O=C(O)C(F)(F)F [NCGC00186454-01] | 79.4
